The subject of data set [1] is T. cruzi (Tulahuen strain). As to the kind of experiment: microbe, parasite or virus in culture. It counts as cell-based, Trypanosoma cruzi. Particulars: for activity at 10 µM: 120 h, read-out: T. cruzi % growth @ 10 uM (Amastigotes); for EC50: read-out: T. cruzi EC50. As to the method: Compounds were tested against T. cruzi (Tulahuen strain) stably expressing the beta-galactosidase gene as previously described. […] Fibroblasts were plated at a density of 2×10^3 per well in 96 well tissue culture plates. After 24 hours of incubation, 1×10^4 trypomastigotes/well were added to the fibroblasts and incubated for 4 hours before addition of the test compounds from the Spectrum Collection (10 µM final concentration). Cultures were incubated at 37°C for 5 days, then developed with chlorophenol red β-D-galactopyranoside as previously described. The percent inhibition is reported with standard deviation of the mean. […] Z-prime values were calculated for each 96-well plate based on positive (4 wells) and negative controls (4 wells).

The test system of a further data set is 3T3 fibroblast cells. As to the kind of experiment: cells. It counts as cell-based, murine. Conditions: for activity at 10 µM: Mus musculus, NIH3T3, 72 h, read-out: Mammalian (3T3) cell % growth at 10 uM.
Where [2] appears, read: Trypanosoma cruzi, TULAHUEN, Fibroblast, 10 uM, Table S2.
Setting [3] is: Trypanosoma cruzi, TULAHUEN, Fibroblast, Table S2, amastigotes.
Setting [4] is: Trypanosoma cruzi, TULAHUEN, Fibroblast.

Structures can show the parent of a compound that is named as a salt. Where two headings read alike, the source gives them in different places.

Regarding `CC(C)COCC(CN(Cc1ccccc1)c1ccccc1)N1CCCC1` (centres unmarked) [BEPRIDIL, N-benzyl-N-[3-(2-methylpropoxy)-2-(pyrrolidin-1-yl)propyl]aniline hydrochloride], the activity at 10 µM in data set [1] (setting [2]) was 24.4%; in the data set with 3T3 fibroblast cells (10 uM, Table S2), 89.6%.
For `COc1c(CC(=O)c2cc3c(cc2O)OC(C)(C)C(O)C3)ccc2c1C=CC(C)(C)O2` (centres unmarked) [DIHYDROMUNDULETONE], in that order: 4.4% and 81.3%.
Take `O=c1cc(-c2ccc(O)cc2)oc2cc(O)cc(O)c12` [APIGENIN, 5,7-dihydroxy-2-(4-hydroxyphenyl)-4H-chromen-4-one]: the activity at 10 µM amounted to 17.7% in data set [1] (setting [2]) and 73.6% in the data set with 3T3 fibroblast cells (10 uM, Table S2).
As to `Clc1ccc(COC(Cn2ccnc2)c2ccc(Cl)cc2Cl)c(Cl)c1` (centres unmarked) [Miconazole, 1-[2-(2,4-dichlorophenyl)-2-[(2,4-dichlorophenyl)methoxy]ethyl]-1H-imidazole], the activity at 10 µM in data set [1] (setting [2]) turned out to be 0.4%; in the data set on 3T3 fibroblast cells (10 uM, Table S2), 100%.
For `O=C1C=C2C=CC3CC2(O1)C1CCCCN31` (centres unmarked) [SECURININE, 14-oxa-7-azatetracyclo[6.6.1.0^{1,11}.0^{2,7}]pentadeca-9,11-dien-13-one], in that order: 1.4% and 75%.
Take `C=CC(C1=CC(=O)C(OC)=CC1=O)c1ccc(O)cc1` (centres unmarked) [DALBERGIONE, 4-METHOXY-4'-HYDROXY-, 2-[1-(4-hydroxyphenyl)prop-2-en-1-yl]-5-methoxycyclohexa-2,5-diene-1,4-dione]: the activity at 10 µM in data set [1] (setting [2]) amounted to 5.1%; in the data set on 3T3 fibroblast cells (10 uM, Table S2), 94.8%.
The corresponding values for `COC(=O)C1(C)CCCC2(C)c3ccc(C(C)C)cc3C(=O)CC12` (centres unmarked) [7-OXOC[…], METHYL ESTER, methyl 1,4a-dimethyl-9-oxo-7-(propan-2-yl)-1,2,3,4,4a,9,10,10a-octahydrophenanthrene-1-carboxylate] are 5.1% and 91.8%.
For `CC1(C)C(=O)C=CC2(C)C1CC(O)C1(C)C2CCC2(C)C(c3ccoc3)OC(=O)C3OC321` (centres unmarked) [DEACETYLGEDUNIN, 7-(furan-3-yl)-19-hydroxy-1,8,12,16,16-pentamethyl-3,6-dioxapentacyclo[9.8.0.0^{2,4}.0^{2,8}.0^{12,17}]nonadec-13-ene-5,15-dione], in that order: 4.4% and 76%.
Take `CC(=O)O[C@H]1CC[C@]2(C)C(C[C@H](OC(C)=O)[C@]3(C)C4=CC(=O)OC(c5ccoc5)[C@@]4(C)CCC23)C1(C)C` (stereo partly drawn) [3beta,7beta-[…]]: the activity at 10 µM was 2.5% in data set [1] (setting [2]) and 72.2% in the data set on 3T3 fibroblast cells (10 uM, Table S2).
For `CCN(CC)C(=S)SSC(=S)N(CC)CC` [N,N-diethyl[(diethylcarbamothioyl)disulfanyl]carbothioamide], the activity at 10 µM was 0.3% in data set [1] (Trypanosoma cruzi, TULAHUEN, Fibroblast, 10 uM, Table S1) and 0.1% in the data set with 3T3 fibroblast cells (10 uM, Table S1).
On to `c1ccc(-c2ccc(C(c3ccccc3)n3ccnc3)cc2)cc1` (centres unmarked) [BIFONAZOLE, 1-[phenyl(4-phenylphenyl)methyl]-1H-imidazole], for which the activity at 10 µM in data set [1] (setting [2]) is 0.7%; with 3T3 fibroblast cells (10 uM, Table S2) it was 93.6%.
Turning to `CC(=O)OC1CCC2(C)C(CC(OC(C)=O)C3(C)C2CCC2(C)C(c4ccoc4)OC(=O)C4OC423)C1(C)C` (stereo not drawn) [3beta-ACETOXYDEOXODIHYDROGEDUNIN, 15-(acetyloxy)-7-(furan-3-yl)-1,8,12,16,16-pentamethyl-5-oxo-3,6-dioxapentacyclo[9.8.0.0^{2,4}.0^{2,8}.0^{12,17}]nonadecan-19-yl acetate], the activity at 10 µM in data set [1] (setting [2]) was 7%; in the data set with 3T3 fibroblast cells (10 uM, Table S2), 96.7%.
Usually EC50 stands for the concentration needed to bring the measured effect to its halfway point. On to `COC(=O)C1=C(C)NC(C)=C(C(=O)OCCN(C)Cc2ccccc2)C1c1cccc([N+](=O)[O-])c1` (centres unmarked) [NICARDIPINE, 3-{2-[benzyl(methyl)amino]ethyl} 5-methyl 2,6-dimethyl-4-(3-nitrophenyl)-1,4-dihydropyridine-3,5-dicarboxylate], for which the activity at 10 µM turned out to be 2% in data set [1] (setting [2]) and 99.8% in the data set on 3T3 fibroblast cells (10 uM, Table S2). The results for the EC50 in data set [1] (setting [3]) and in data set [1] (setting [4]) were 5.85 µM and 5.9 µM, respectively.
Turning to `COc1cc(O)c2c(c1)C(=O)c1cc(C)cc(O)c1C2=O` [PHYSCION, 1,8-dihydroxy-3-methoxy-6-methyl-9,10-dihydroanthracene-9,10-dione], the activity at 10 µM in data set [1] (setting [2]) is 9.2%; with 3T3 fibroblast cells (10 uM, Table S2) it was 96.8%.
The corresponding values for `COc1ccc(-c2cc(=O)c3ccccc3o2)cc1OC` [3',4'-DIMETHOXYFLAVONE, 2-(3,4-dimethoxyphenyl)-4H-chromen-4-one] are 24% and 86.4%.
The corresponding values for `COc1c(-c2coc3cc4c(cc3c2=O)CC(OC(C)=O)C(C)(C)O4)ccc2c1C=CC(C)(C)O2` (centres unmarked) [MUNDULONE ACETATE] are 4.6% and 76%.
`O=c1[nH]c(=O)n(C2CC(O)C(CO)O2)cc1F` (centres unmarked) [FLOXURIDINE, 5-fluoro-1-[4-hydroxy-5-(hydroxymethyl)oxolan-2-yl]-1,2,3,4-tetrahydropyrimidine-2,4-dione]: the activity at 10 µM in data set [1] (setting [2]) worked out at 2.6%; in the data set on 3T3 fibroblast cells (10 uM, Table S2), 86.2%.
Take `O=c1c(-c2cc(O)c(O)c(O)c2)coc2cc(O)c(O)c(O)c12` [IRIGENOL, 5,6,7-trihydroxy-3-(3,4,5-trihydroxyphenyl)-4H-chromen-4-one]: the activity at 10 µM in data set [1] (setting [2]) came out at 5.7%; in the data set on 3T3 fibroblast cells (10 uM, Table S2), 73.7%.
For `O=C(CCCN1CCC2(CC1)C(=O)NCN2c1ccccc1)c1ccc(F)cc1` [SPIPERONE, 8-[4-(4-fluorophenyl)-4-oxobutyl]-1-phenyl-1,3,8-triazaspiro[4.5]decan-4-one], in that order: 17.1% and 94.7%.
`CCCCCC(=O)O[C@]1(C(C)=O)CC[C@H]2C3CCC4=CC(=O)CCC4(C)[C@H]3CCC21C` (stereo partly drawn) [HYDROXYPROGESTERONE CAPROATE, (1S,11S,14R)-14-acetyl-2,15-dimethyl-5-oxotetracyclo[8.7.0.0^{2,7}.0^{11,15}]heptadec-6-en-14-yl hexanoate]: the activity at 10 µM in data set [1] (setting [2]) is 1.8%; in the data set with 3T3 fibroblast cells (10 uM, Table S2) it was 100%. Also, the EC50 in data set [1] (setting [3]) came to 10 µM.
For the compound `CC1=CC(=O)C2C(C)(C)CCCC2(C)C1(O)CCc1ccoc1` (centres unmarked) [SOLIDAGENONE, 4-[2-(furan-3-yl)ethyl]-4-hydroxy-3,4a,8,8-tetramethyl-1,4,4a,5,6,7,8,8a-octahydronaphthalen-1-one], the activity at 10 µM in data set [1] (setting [2]) turned out to be 15.1%; in the data set with 3T3 fibroblast cells (10 uM, Table S2), 75.8%.
The corresponding values for `CCOC(=O)C(CCc1ccccc1)NC1CCc2ccccc2N(CC(=O)O)C1=O` (centres unmarked) [BENAZEPRIL HYDROCHLORIDE, 2-{3-[(1-ethoxy-1-oxo-4-phenylbutan-2-yl)amino]-2-oxo-2,3,4,5-tetrahydro-1H-1-benzazepin-1-yl}acetic acid hydrochloride] are 1% and 66.8%.
Turning to `CC12CCC3C(CCC4CC(O)CCC43C)C1CCC2=O` (centres unmarked) [EPIANDROSTERONE, 5-hydroxy-2,15-dimethyltetracyclo[8.7.0.0^{2,7}.0^{11,15}]heptadecan-14-one], the activity at 10 µM was determined as 18.8% in data set [1] (setting [4]) and 100% with 3T3 fibroblast cells.
`CC(C)C(C)/C=C/C(C)C1CCC2C3=CC=C4CC(O)CCC4(C)C3CCC21C` (centres unmarked) [ERGOSTEROL, 14-[(3E)-5,6-dimethylhept-3-en-2-yl]-2,15-dimethyltetracyclo[8.7.0.0^{2,7}.0^{11,15}]heptadeca-7,9-dien-5-ol]: the activity at 10 µM in data set [1] (setting [2]) is 6%; in the data set on 3T3 fibroblast cells (10 uM, Table S2), 99.6%.
The corresponding values for `Clc1ccc(COC(Cn2ccnc2)c2ccc(Cl)cc2Cl)cc1` (centres unmarked) [ECONAZOLE, 1-{2-[(4-chlorophenyl)methoxy]-2-(2,4-dichlorophenyl)ethyl}-1H-imidazole] are 2.4% and 100%.
Broadly, the CC50 is the concentration giving 50% cytotoxicity. Regarding `C=CCN(C)CCCCCCOc1ccc(C(=O)c2ccc(Br)cc2)c(F)c1` [Ro 48-8071], the EC50 in data set [1] (intracellular amastigotes, 5 days, separate assays separated by semicolons) worked out at 0.41 µM. In addition, in the data set on 3T3 fibroblast cells (3T3 fibroblasts, 72 hours, separate assays separated by semicolons, read-out: Mammalian cell CC50), the CC50 is 7.4 µM.
For the compound `CNC1CCC(c2ccc(Cl)c(Cl)c2)c2ccccc21` (centres unmarked) [Sertraline, 4-(3,4-dichlorophenyl)-N-methyl-1,2,3,4-tetrahydronaphthalen-1-amine hydrochloride], the activity at 10 µM in the data set with 3T3 fibroblast cells (10 uM, Table S2) amounted to 100%.
On the same count and under the same terms, then `CNCCC(Oc1ccc(C(F)(F)F)cc1)c1ccccc1` (centres unmarked) [Fluoxetine, methyl({3-phenyl-3-[4-(trifluoromethyl)phenoxy]propyl})amine hydrochloride], with 100%; and `CN(C)CCCN1c2ccccc2CCc2ccc(Cl)cc21` [Clomipramine, (3-{5-chloro-2-azatricyclo[9.4.0.0^{3,8}]pentadeca-1(15),3,5,7,11,13-hexaen-2-yl}propyl)dimethylamine hydrochloride], with 84.6%; and `CCCCc1oc2ccccc2c1C(=O)c1cc(I)c(OCCN(CC)CC)c(I)c1` [Amiodarone, (2-{4-[(2-butyl-1-benzofuran-3-yl)carbonyl]-2,6-diiodophenoxy}ethyl)diethylamine hydrochloride], with 86.7%.

Values taken from PMC4102417 (PLoS Neglected Tropical Diseases, 2014).
